According to PMC11345829, “Discovery of Potent Isoquinolinequinone N-Oxides to Overcome Cancer Multidrug Resistance” (Journal of Medicinal Chemistry, 2024):

Legend:
Assay type in all cases: cell-based, human
NCI-H460 cells [1] = assay: BrdU incorporation assay (cell proliferation); conditions: 48 h; 25 at 0.35 and 0.7 μM; doxorubicin 50 nM
Procedure: To assess the impact of compound 25 on cell proliferation, the bromodeoxyuridine (BrdU) incorporation assay was performed.
Figure 7 Effect of compound 25 on the % of proliferating NCI-H460 cells, determined with the BrdU assay. […] (A) Percentage of BrdU-incorporating cells under different treatments. Results are the mean ± SEM from at least 3 independent experiments. * p ≤ 0.05, ** p ≤ 0.01, when comparing DMSO vs compound treatment.
At 4 h before the end of this treatment, cells were incubated with 1 μM of BrdU (Merck Life Science). After collection of cells, they were fixed with paraformaldehyde 4% (Merck Life Science) for 40 min at room temperature (RT). Then, cells were subjected to a cytospin (500 rpm for 5 min), and cellular DNA was denaturated using 2 M of HCl (Merck Life Science) for 20 min. Cells were incubated with a PBS solution containing 0.5% Tween (Promega, Madison, Wisconsin, USA) and 0.05% bovine serum albumin (BSA; Merck Life Science). The cells were further incubated with a primary monoclonal mouse anti-BrdU Clone Bu20a antibody (1:10; Dako, Glostrup, Denmark) for 1 h, followed by incubation with a polyclonal rabbit antimouse immunoglobulins/FITC secondary antibody (1:100; Dako) for 30 min at RT. […] The cells were counted using the ImageJ 2.1.0 software.

NCI-H460 cells [2] = assay: Cell cycle profile, PI staining flow cytometry; conditions: 48 h; for cell cycle profile: 25 at 0.35 and 0.7 μM, doxorubicin 50 nM
Procedure: The effect of 25 on the cell cycle profile of NCI-H460 cells was assessed.
Figure 8 Effect of compound 25 on the cell cycle profile of NCI-H460 cells, analyzed by flow cytometry (PI staining). […] (A) Frequency (%) of cell cycle phases for each condition. (B) Representative cell cycle histograms. Results are the mean ± SEM from at least 3 independent experiments. * p ≤ 0.05, when comparing DMSO vs compound treatment.
Collected cells were then fixed in ice-cold 70% ethanol (Fisher Scientific) overnight. Cells were then centrifuged again and resuspended in 5 μg/mL of PI (Merck Life Science) and 0.1 mg/mL RNase A (Invitrogen) in PBS, and kept in the dark for at least 30 min. Cellular DNA content was analyzed using the BD Accuri C6 Flow cytometer. At least 10 000 events per sample were acquired. FlowJo 7.6.5 software (Tree Star, Inc., Ashland, Oregon, USA) was used to determine the % of cells in the different phases of the cell cycle.

NCI-H460 spheroids = assay: Cell Titer-Glo 3D spheroid viability assay; conditions: 48 h; 25 at 0.35 and 0.7 μM; doxorubicin 50 nM
From the text: Figure 12 Effect of compound 25 on the viability of spheroids established from two counterpart pairs of sensitive and MDR cell lines, from NSCLC (NCI-H460 and NCI-H460/R) and colorectal cancer (DLD1 and DLD1-TxR), using MicroTissue 3D Petri dishes. […] (B) Effect of compound 25 on the viability of NCI-H460 spheroids analyzed by Cell Titer-Glo 3D viability assay. (C) Effect of compound 25 on the viability of NCI-H460/R spheroids analyzed with the Cell Titer-Glo 3D viability assay. Results are presented as the % of luciferase luminescence relative to the “blank” cells (medium). […] (E) Effect of compound 25 on the viability of DLD1 spheroids analyzed by Cell Titer-Glo 3D viability assay. (F) Effect of compound 25 on the viability of DLD1-TxR spheroids analyzed with the Cell Titer-Glo 3D viability assay. Data are expressed as mean ± SEM from 3 independent experiments. * p ≤ 0.05 and ** p ≤ 0.01, when comparing DMSO vs compound treatment.
Spheroid formation was conducted in 12-series agarose 3D Petri Dish micromolds (MicroTissues Technology, MicroTissues Inc., Sigma-Aldrich). The agarose micromolds were prepared using 1% agarose in a 0.9% NaCl solution and then placed in 12-well plates and equilibrated with RPMI supplemented with 10% FBS for at least 2 h before cell seeding. Cell suspensions corresponding to 500 cells per spheroid of the NSCLC cell lines (NCI-H460 and NCI-H460/R), and 1000 cells per spheroid of the colorectal cancer cell lines (DLD1 and DLD1-TxR) were seeded in the corresponding micromolds. The choice of cell seeding concentration was based on a previous optimization assay (data not shown), ensuring that at the end of the assay the spheroids would have a size of around 400 μm. A 20 min incubation period was used for cells to settle into the micromolds and additional medium was finally added to the wells. Spheroid formation was monitored with the Leica DMi1 microscope. […] At the end of the treatment, images from at least 8 different spheroids per condition were captured on the Leica Dmi1 microscope, and posteriorly analyzed with the automated open-source software AnaSP.[82] Spheroid parameters, such as equivalent diameter, circularity, and compactness, were calculated.
Spheroid viability was determined through the luminescence-based Cell Titer-Glo 3D cell viability assay (Promega). Spheroids grown on MicroTissues 3D Petri Dish micromolds were exposed to the treatments, as described in the previous section. Then, the spheroids were transferred into 96-well plates in 50 μL of RPMI medium. […] The plate was then incubated in the dark for 5 min with agitation and allowed to rest for 25 min before luminescence measurement. Luminescence was quantified using the microplate reader Synergy MX coupled with the GEN5 software. […]

Structure (SMILES) | percentage of proliferating (BrdU-incorporating) cells (NCI-H460 cells [1]) | cells in sub-G1 phase (NCI-H460 cells [2]; 0.35 and 0.7 μM) | cell cycle profile (NCI-H460 cells [2]) | viability of NCI-H460 spheroids (NCI-H460 spheroids)
COC(=O)c1c2c(c[n+]([O-])c1C)C(=O)C=C(NCc1ccccc1)C2=O [Compound 25] | significantly reduced the percentage of NCI-H460 proliferating cells | slight increase in the percentage of cells in the sub-G1 phase, although not statistically significant | increase in the G1 phase and decrease in the S phase | significant decrease in the viability of the spheroids
COc1cccc2c1C(=O)c1c(O)c3c(c(O)c1C2=O)C[C@@](O)(C(=O)CO)C[C@@H]3O[C@H]1C[C@H](N)[C@H](O)[C@H](C)O1 [doxorubicin, reference compound] | significantly reduced the percentage of NCI-H460 proliferating cells | – | major alterations in the cell cycle profile | did not significantly affect the viability of the spheroids
